Converted amounts (≈) assume the structure as drawn.
Assays:
[1] = system: Mahlavu; assay: MTT cell viability, Mahlavu; format: cell-based, Human; conditions: for IC50: Homo sapiens, Mahlavu, 48 hr, mean ± SD; for Selectivity index (SI) BNL CL.2/Mahlavu / Selectivity index (SI) MDCK/Mahlavu / Selectivity index (SI) SVEC/Mahlavu: IC50 of normal cells/IC50 of HCC cells
Experimental: (§1) HCC cells (5 × 10^3/100 μL), SVEC, MDCK (1 × 10^4/100 μL), and BNL CL.2 cells (4 × 10^4/100 μL) were seeded in a 96-well plate. After incubating overnight at 37 ℃, the cells were treated with serially diluted drug concentrations for 24, 48, and 72 h. The cell viability was measured using an MTT assay.

[2] = system: MDCK; assay: MTT cell viability, MDCK normal cells; format: cell-based, Canine; conditions: Canis lupus familiaris, 48 hr, mean ± SD
Experimental: as §1

[3] = system: BNL CL.2; assay: MTT cell viability, BNL CL.2 normal liver cells; format: cell-based; conditions: Mus musculus, 48 hr, mean ± SD
Experimental: as §1

[4] = system: Huh7; assay: MTT cell viability, Huh7; format: cell-based, Human; conditions: for IC50: Homo sapiens, Huh-7, Huh7, 48 hr, mean ± SD; for Selectivity index (SI) BNL CL.2/Huh7 / Selectivity index (SI) MDCK/Huh7 / Selectivity index (SI) SVEC/Huh7: IC50 of normal cells/IC50 of HCC cells
Experimental: as §1

[5] = system: HepG2; assay: MTT cell viability, HepG2; format: cell-based, Human; conditions: for IC50: Homo sapiens, HepG2, 48 hr, mean ± SD; for Selectivity index (SI) BNL CL.2/HepG2 / Selectivity index (SI) MDCK/HepG2 / Selectivity index (SI) SVEC/HepG: IC50 of normal cells/IC50 of HCC cells
Experimental: as §1

[6] = system: SVEC; assay: MTT cell viability, SVEC normal cells; format: cell-based; conditions: Mus musculus, 48 hr, mean ± SD
Experimental: as §1

[7] = system: J5; assay: MTT cell viability, J5; format: cell-based, Human; conditions: for IC50: Homo sapiens, J5, 48 hr, mean ± SD; for Selectivity index (SI) BNL CL.2/J5 / Selectivity index (SI) MDCK/J5 / Selectivity index (SI) SVEC/J5: IC50 of normal cells/IC50 of HCC cells
Experimental: as §1

[8] = system: HepG2 cells; assay: Regrowth assay (crystal violet), HepG2; conditions: PPa extract 15 μg/mL, sorafenib 0.2 μg/mL, 4 and 8 days
Experimental: (§2) After that, both cell lines were analyzed for flow cytometry. […] During treatments, fresh drugs were changed every two days and harvested the data at 4 and 8 days. After treatment, cells were stained with 0.1% crystal violet and absorbance was measured at 550 nm after dissolving in 0.5% acetic acid. For detection of indicated protein expressions, cells (2 × 10^6) seeded at 10 cm dishes. […] Cell lysates were collected for western blot.

[9] = system: Mahlavu cells; assay: Regrowth assay (crystal violet), Mahlavu; conditions: PPa extract 15 μg/mL, sorafenib 0.2 μg/mL, 4 and 8 days
Experimental: as §2

Row | IC50 [4] [µg/mL] | IC50 [5] [µg/mL] | SMILES | IC50 [1] [µg/mL] | Selectivity index (SI) BNL CL.2/Mahlavu [1] | Selectivity index (SI) MDCK/Mahlavu [1] | Selectivity index (SI) SVEC/Mahlavu [1] | IC50 [2] [µg/mL] | IC50 [3] [µg/mL] | Selectivity index (SI) BNL CL.2/Huh7 [4] | Selectivity index (SI) MDCK/Huh7 [4] | Selectivity index (SI) SVEC/Huh7 [4] | Selectivity index (SI) BNL CL.2/HepG2 [5] | Selectivity index (SI) MDCK/HepG2 [5] | Selectivity index (SI) SVEC/HepG [5] | IC50 [6] [µg/mL] | IC50 [7] [µg/mL] | Selectivity index (SI) BNL CL.2/J5 [7] | Selectivity index (SI) MDCK/J5 [7] | Selectivity index (SI) SVEC/J5 [7] | also measured
1 | 5.11 ± 2.08 (≈ 8.68 µM) | 4.73 ± 3.57 (≈ 8.04 µM) | COc1cc([C@@H]2c3cc4c(cc3[C@@H](O[C@@H]3O[C@@H]5CO[C@@H](C)O[C@H]5[C@H](O)[C@H]3O)[C@H]3COC(=O)[C@H]23)OCO4)cc(OC)c1O [VP-16, Etoposide] | 4.54 ± 2.17 (≈ 7.71 µM) | 1.4 | 0.8 | 0.4 | 3.38 ± 0.43 (≈ 5.74 µM) | 6.43 ± 3.02 (≈ 10.9 µM) | 1.3 | 0.7 | 0.4 | 1.4 | 0.7 | 0.4 | 1.85 ± 0.49 (≈ 3.14 µM) | 3.01 ± 2.75 (≈ 5.11 µM) | 2.1 | 1.1 | 0.6 | –
2 | 4.88 ± 3.37 (≈ 37.5 µM) | 2.09 ± 1.63 (≈ 16.1 µM) | O=c1[nH]cc(F)c(=O)[nH]1 [5-FU, 5-Fluorouracil] | 15 ± 3.71 (≈ 115 µM) | – | – | – | 8.74 ± 0.53 (≈ 67.2 µM) | > 20 | – | – | – | – | – | – | 1.69 ± 2.8 (≈ 13 µM) | 18.8 ± 0.91 (≈ 144 µM) | – | – | – | –

Row | SMILES | IC50 [4] [µg/mL] | IC50 [5] [µg/mL] | IC50 [1] [µg/mL] | Selectivity index (SI) BNL CL.2/Mahlavu [1] | Selectivity index (SI) MDCK/Mahlavu [1] | Selectivity index (SI) SVEC/Mahlavu [1] | IC50 [2] [µg/mL] | IC50 [3] [µg/mL] | Selectivity index (SI) BNL CL.2/Huh7 [4] | Selectivity index (SI) MDCK/Huh7 [4] | Selectivity index (SI) SVEC/Huh7 [4] | Selectivity index (SI) BNL CL.2/HepG2 [5] | Selectivity index (SI) MDCK/HepG2 [5] | Selectivity index (SI) SVEC/HepG [5] | IC50 [6] [µg/mL] | IC50 [7] [µg/mL] | Selectivity index (SI) BNL CL.2/J5 [7] | Selectivity index (SI) MDCK/J5 [7] | Selectivity index (SI) SVEC/J5 [7] | also measured
3 | CNC(=O)c1cc(Oc2ccc(NC(=O)Nc3ccc(Cl)c(C(F)(F)F)c3)cc2)ccn1 [SOR, sorafenib] | 1.77 ± 4.31 (≈ 3.81 µM) | 3.52 ± 1.97 (≈ 7.57 µM) | 6.07 ± 1.06 (≈ 13.1 µM) | 1.8 | 1.1 | 1.4 | 6.95 ± 1.45 (≈ 15 µM) | 10.8 ± 5.17 (≈ 23.1 µM) | 6.1 | 3.9 | 4.8 | 3.1 | 2.0 | 2.4 | 8.55 ± 2.73 (≈ 18.4 µM) | 2.39 ± 1.91 (≈ 5.14 µM) | 4.5 | 2.9 | 3.6 | inhibition of cell regrowth [8]: no inhibitory effect; inhibition of cell regrowth [9]: no inhibitory effect

Source: PMC7731310, “Pogostemon cablin Triggered ROS-Induced DNA Damage to Arrest Cell Cycle Progression and Induce Apoptosis on Human Hepatocellular Carcinoma In Vitro and In Vivo” (Molecules, 2020)
